According to the supplement of paper PMC10307832:

Legend:
Assay in all cases: relative viability (nuclei count vs DMSO), 5 days (fraction); higher = more cells survive
FG-4592 = compound: Cc1nc(C(=O)NCC(=O)O)c(O)c2ccc(Oc3ccccc3)cc12 [FG-4592]
Method in brief: (§1)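 Only plates meeting two conditions passed: control CV below 25% and at least one doubling. Lung cancer cell lines, kept overnight at 37 °C in 1536-well plates, were pinned with five library-drug doses (not always all listed) √10 apart on vehicle-anchored plates and grown 5 days without medium change. A one-step fix, permeabilisation and Hoechst stain preceded 4× imaging and MetaXpress nuclear counting. Viability equals treated-well nuclei divided by vehicle-well nuclei, as the median over plates.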

IU1-47 = compound: CC1=CC(=C(N1C2=CC=C(C=C2)Cl)C)C(=O)CN3CCCCC3 [IU1-47]
Method in brief: as §1

FG-4592 + Pemetrexed = compound: Cc1nc(C(=O)NCC(=O)O)c(O)c2ccc(Oc3ccccc3)cc12 [FG-4592] + Nc1nc2[nH]cc(CCc3ccc(C(=O)N[C@@H](CCC(=O)O)C(=O)O)cc3)c2c(=O)[nH]1 [Pemetrexed] (partner 0.2 µM)
Method in brief: (§2)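 Lung cancer cell lines in 1536-well plates were dosed by pin tool the day after seeding, either with one drug alone or with a fixed anchor-drug dose plus five library-drug doses (not always all listed) in √10 steps. After 5 days, cells were fixed and their nuclei stained in one step (final 0.05% Triton X-100, 1% formaldehyde, 1 ug/ml Hoechst), then counted on 4× images. Relative viability is the nuclei count in treated wells divided by that in vehicle wells. Values are medians of duplicate plates.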

IU1-47 + OSI-027 = compound: CC1=CC(=C(N1C2=CC=C(C=C2)Cl)C)C(=O)CN3CCCCC3 [IU1-47] + COc1cccc2cc(-c3nc([C@H]4CC[C@H](C(=O)O)CC4)n4ncnc(N)c34)[nH]c12 [OSI-027] (partner 0.5 µM)
Method in brief: as §2

| Cell Line | relative viability (FG-4592; 0.08 µM) | relative viability (FG-4592; 0.253 µM) | relative viability (FG-4592; 0.8 µM) | relative viability (FG-4592; 2.53 µM) | relative viability (FG-4592; 8 µM) | relative viability (IU1-47; 0.08 µM) | relative viability (IU1-47; 0.253 µM) | relative viability (IU1-47; 0.8 µM) | relative viability (IU1-47; 2.53 µM) | relative viability (IU1-47; 8 µM) | relative viability (FG-4592 + Pemetrexed; first compound 0.08 µM) | relative viability (FG-4592 + Pemetrexed; first compound 0.253 µM) | relative viability (FG-4592 + Pemetrexed; first compound 0.8 µM) | relative viability (FG-4592 + Pemetrexed; first compound 2.53 µM) | relative viability (FG-4592 + Pemetrexed; first compound 8 µM) | relative viability (IU1-47 + OSI-027; first compound 0.08 µM) | relative viability (IU1-47 + OSI-027; first compound 0.253 µM) | relative viability (IU1-47 + OSI-027; first compound 0.8 µM) | relative viability (IU1-47 + OSI-027; first compound 2.53 µM) | relative viability (IU1-47 + OSI-027; first compound 8 µM) |
| --- | --- | --- | --- | --- | --- | --- | --- | --- | --- | --- | --- | --- | --- | --- | --- | --- | --- | --- | --- | --- |
| 201T | 0.941 | 0.955 | 0.974 | 1 | 0.982 | 0.961 | 0.99 | 1.07 | 0.53 | 0.941 | 0.355 | 0.331 | 0.305 | 0.29 | 0.308 | 0.747 | 0.784 | 0.886 | 0.813 | 0.832 |
| A549 | 0.979 | 0.86 | 0.974 | 1.02 | 0.911 | 1.06 | 1.07 | 0.978 | 0.937 | 1.01 | – | – | – | – | – | – | – | – | – | – |
| A-427 | 0.923 | 0.916 | 0.797 | 0.866 | 0.897 | 1.03 | 1.04 | 1.12 | 0.549 | 0.956 | 0.874 | 0.96 | 0.895 | 0.986 | 0.902 | 0.454 | 0.472 | 0.453 | – | 0.463 |
| ABC-1 | 0.814 | 0.824 | 0.924 | 0.949 | 0.77 | 1.03 | 1.01 | 0.888 | – | 0.876 | – | – | – | – | – | 0.462 | 0.504 | 0.43 | – | 0.379 |
| BEN | 0.787 | 0.734 | 0.822 | 1.03 | 0.733 | 1.02 | 1.01 | 1.12 | 0.781 | 0.971 | 0.548 | 0.649 | 0.592 | 0.822 | 0.726 | 0.294 | 0.302 | 0.296 | – | 0.268 |
| CAL-12T | 0.973 | 0.864 | 1.05 | 0.906 | 0.894 | 0.916 | 0.919 | 1.03 | 0.826 | 0.879 | 1.21 | 1.3 | 1.3 | 0.974 | 1.04 | 0.764 | 0.635 | 0.675 | 0.631 | 0.683 |
| COR-L23 | 0.97 | 1.01 | 1.11 | 0.902 | 1.03 | 1.1 | 1.08 | 1.15 | 0.938 | 1.15 | 0.205 | 0.204 | 0.171 | 0.194 | 0.187 | 0.831 | 0.977 | 0.845 | 0.901 | 0.563 |
| COR-L 105 | 0.921 | 0.938 | 0.909 | 0.821 | 0.801 | 0.95 | 0.901 | 1.02 | 0.899 | 0.91 | 1.03 | 0.92 | 1.13 | 1.14 | 0.877 | 0.746 | 0.634 | 0.711 | 0.581 | 0.57 |
| Calu-6 | 0.945 | 0.995 | 1.03 | 0.975 | 1.02 | 1 | 1.06 | 1.07 | 1.04 | 1.02 | – | – | – | – | – | – | – | – | – | – |
| ChaGo-K-1 | 0.97 | 0.975 | 0.935 | 0.967 | 0.937 | 0.982 | 0.997 | 1.04 | 0.811 | 0.821 | 0.266 | 0.258 | 0.26 | 0.26 | 0.274 | 0.485 | 0.535 | 0.589 | 0.41 | 0.489 |
| EBC-1 | 1.07 | 0.977 | 0.95 | 0.94 | 0.953 | 1.06 | 0.954 | 1.05 | 0.921 | 0.867 | – | – | – | – | – | – | – | – | – | – |
| EKVX | 1.03 | 0.809 | 0.932 | 0.941 | 0.992 | 1.23 | 1.12 | 1.03 | 0.859 | 0.943 | 0.346 | 0.36 | 0.376 | 0.377 | 0.515 | 0.858 | 0.862 | 0.726 | 0.658 | 0.828 |
| EMC-BAC-2 | 0.947 | 0.929 | 0.674 | 0.938 | 0.779 | 1.1 | 1.09 | 0.974 | 0.977 | 0.974 | 0.407 | 0.407 | 0.447 | 0.434 | 0.423 | 0.392 | 0.368 | 0.374 | 0.38 | 0.362 |
| EPLC-272H | 0.886 | 0.777 | 0.7 | 0.901 | 0.889 | 1.02 | 1.05 | 0.933 | – | 0.806 | 0.321 | 0.223 | 0.319 | 0.353 | 0.377 | 0.326 | 0.325 | 0.253 | – | 0.259 |
| H3255 | 1.02 | 0.87 | 0.926 | 0.9 | 1.08 | 1.11 | 1.16 | 1.02 | 0.74 | 0.975 | 0.586 | 0.538 | 0.567 | 0.573 | 0.56 | 0.654 | 0.675 | 0.624 | 0.465 | 0.561 |
| HARA | 0.782 | 0.752 | 0.822 | 1.01 | 1.13 | 0.964 | 0.935 | 1.09 | 0.68 | 0.817 | – | – | – | 0.251 | 0.24 | 0.554 | 0.406 | 0.456 | – | 0.413 |
| HCC-15 | 0.978 | 0.922 | 0.954 | 0.95 | 1.05 | 1.1 | 1.08 | 1.05 | 0.678 | 0.976 | 0.21 | 0.235 | 0.22 | 0.221 | 0.232 | 0.709 | 0.722 | 0.685 | 0.388 | 0.616 |
| HCC-44 | 1.01 | 0.939 | 0.806 | 1.05 | 1.04 | 0.964 | 1.03 | 1.03 | 0.945 | 1.02 | 0.615 | 0.652 | 0.705 | 0.688 | 0.725 | 0.403 | 0.483 | 0.593 | 0.434 | 0.389 |
